Reference: patent publication US20240408216A1, “PROTEIN INHIBITOR OR DEGRADING AGENT, PHARMACEUTICAL COMPOSITION CONTAINING SAME AND PHARMACEUTICAL USE” (JING MEDICINE TECHNOLOGY (SHANGHAI) LTD., priority 2021, published 2024)

Legend:
[1] = system: BaF3 (EGFR Del19/T790M/C797S); assay: Cell proliferation IC50 assay (Cell Titer GLO), BaF3 DTC cells; format: cell-based; conditions: Mus musculus, Ba/F3 EGFR-Del19/T790M/C797S, Table 6, 72 h
Description: IC50 of compounds in the present invention was determined by Cell Titer GLO reagent from Promega. The procedures are as follows:
Tumor cells were cultured in specified medium in an incubator at 37° C. and 5% CO2. The cells were passaged periodically. Cells at the logarithmic growth phase were collected for plating at a density of 2000-4000 cells/well. The next day, the compounds of the present invention were serially diluted and added to the cells, with DMSO being the negative control and the culture media without cells being the blank control. The plate was incubated in the incubator for 72 h. The cell viability assay was performed by adding the detection reagents to the cell culture media according to Cell Titer GLO reagent instructions and detecting luminescent signals on an EnVision microplate reader (PerkinElmer).
Inhibition of cell growth by the compounds of the present invention was plotted by Prism Graphpad software for statistically calculating the IC50 of the compound of the present invention.

[2] = system: BaF3 (EGFR L858R/T790M/C797S); assay: Cell proliferation IC50 assay (Cell Titer GLO), BaF3 LTC cells; format: cell-based; conditions: Mus musculus, Ba/F3 EGFR, Table 6, 72 h
Method in brief: (§1)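 Growth inhibition is measured over 72 h of continuous compound treatment in cells seeded at 2000-4000 per well.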

BaF3 (EGFR Del19/C797S) = molecular target: T1, BaF3 (EGFR Del19/C797S) (Homo sapiens, UniProt P00533, C797S, cells depend on it, form not given); assay: Cell proliferation IC50 assay (Cell Titer GLO), BaF3 DC cells; format: cell-based, mouse; conditions: Table 6, 72 h
T1 construct: BaF3 (EGFR Del19/C797S)|DC|RPMI1640 + 10% FBS
T1 sequence (P00533 with tags, fused parts or gaps DEL746-750/C797S, form open): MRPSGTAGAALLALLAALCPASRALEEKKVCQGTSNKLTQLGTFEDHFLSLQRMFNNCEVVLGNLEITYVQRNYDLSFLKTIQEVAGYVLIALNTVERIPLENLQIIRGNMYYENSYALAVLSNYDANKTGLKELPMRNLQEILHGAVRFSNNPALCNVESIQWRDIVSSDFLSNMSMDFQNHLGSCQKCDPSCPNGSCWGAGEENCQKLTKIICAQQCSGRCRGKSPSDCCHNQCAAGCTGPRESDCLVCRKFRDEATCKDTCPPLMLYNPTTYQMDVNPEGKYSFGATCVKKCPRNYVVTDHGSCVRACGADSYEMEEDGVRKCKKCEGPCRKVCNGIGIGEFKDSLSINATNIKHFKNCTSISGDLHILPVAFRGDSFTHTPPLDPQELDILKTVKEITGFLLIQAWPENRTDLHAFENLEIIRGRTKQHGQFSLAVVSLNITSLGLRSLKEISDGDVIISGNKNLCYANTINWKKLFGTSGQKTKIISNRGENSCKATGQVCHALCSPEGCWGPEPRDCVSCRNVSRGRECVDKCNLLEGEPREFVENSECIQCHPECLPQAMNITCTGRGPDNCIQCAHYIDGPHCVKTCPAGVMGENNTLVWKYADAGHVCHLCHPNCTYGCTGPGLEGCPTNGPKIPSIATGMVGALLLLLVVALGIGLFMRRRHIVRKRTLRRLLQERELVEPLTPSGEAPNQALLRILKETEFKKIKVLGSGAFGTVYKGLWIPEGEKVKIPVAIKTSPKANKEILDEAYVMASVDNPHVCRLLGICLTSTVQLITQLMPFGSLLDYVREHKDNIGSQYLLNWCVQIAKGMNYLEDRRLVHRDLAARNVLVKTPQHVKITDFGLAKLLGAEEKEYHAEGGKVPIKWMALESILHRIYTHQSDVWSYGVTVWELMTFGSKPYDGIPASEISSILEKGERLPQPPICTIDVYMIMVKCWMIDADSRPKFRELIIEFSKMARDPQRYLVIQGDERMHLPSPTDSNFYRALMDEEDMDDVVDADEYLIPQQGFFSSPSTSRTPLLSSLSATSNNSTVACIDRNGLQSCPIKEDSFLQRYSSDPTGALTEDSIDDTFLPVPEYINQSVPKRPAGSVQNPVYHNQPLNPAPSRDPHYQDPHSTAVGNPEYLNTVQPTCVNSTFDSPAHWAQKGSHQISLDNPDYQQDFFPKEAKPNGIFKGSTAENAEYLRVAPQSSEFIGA
Method in brief: as §1

BaF3 (EGFR WT) = assay: Cell proliferation IC50 assay (Cell Titer GLO), BaF3 WT cells; format: cell-based; conditions: Mus musculus, Ba/F3 EGFR, Table 6, 10 ng/ml EGF, 72 h
Method in brief: as §1

A431 = assay: Cell proliferation IC50 assay (Cell Titer GLO), A431 cells; format: cell-based; conditions: Homo sapiens, A-431; Table 6; A431, 72 h; read-out: A431 IC50
Method in brief: as §1

Row | SMILES | IC50 [1] | IC50 [2] | IC50 (BaF3 (EGFR Del19/C797S)) | IC50 (BaF3 (EGFR WT)) | IC50 (A431)
1 | CCc1cc(Nc2ncc(Cl)c(Nc3ccccc3P(C)(C)=O)n2)c(OC)cc1N1CCC(N2CCN(CCOc3cccc4c3CN(C3CCC(=O)NC3=O)C4=O)C(C)(C)C2)CC1 (stereo not shown) [Example E108] | 10.5 nM | 76.7 nM | 3.2 nM | 1750 nM | 3550 nM
2 | CCc1cc(Nc2ncc(Cl)c(Nc3ccccc3P(C)(C)=O)n2)c(OC)cc1N1CCC(N2CCN(CCOCCc3cccc4c3CN(C3CCC(=O)NC3=O)C4=O)CC2)CC1 (stereo not shown) [Example E109] | 10.5 nM | 83.3 nM | 6.5 nM | > 4000 nM | 1140 nM
3 | CCc1cc(Nc2ncc(Cl)c(Nc3ccccc3P(C)(C)=O)n2)c(OC)cc1N1CCC(N2CCN(C(=O)CNc3cccc4c3C(=O)N(C3CCC(=O)NC3=O)C4=O)CC2)CC1 (stereo not shown) [Example E112] | 18.4 nM | 85.4 nM | 10.7 nM | > 4000 nM | 1370 nM
4 | CCc1cc(Nc2ncc(Cl)c(Nc3ccccc3P(C)(C)=O)n2)c(OC)nc1N1CCC(N2CCN(CCCCOc3cccc4c3CN(C3CCC(=O)NC3=O)C4=O)CC2)CC1 (stereo not shown) [Example E115] | 5.19 nM | 24.4 nM | 1.4 nM | 779 nM | 1160 nM
5 | CCc1cc(Nc2ncc(Cl)c(Nc3ccccc3P(C)(C)=O)n2)c(OC)cc1N1CCC(N(C)CCCCOc2cccc3c2CN(C2CCC(=O)NC2=O)C3=O)CC1 (stereo not shown) [Example E116] | 7.32 nM | 56.3 nM | 4.3 nM | > 4000 nM | 1220 nM
6 | CCc1cc(Nc2ncc(Cl)c(Nc3ccc(F)cc3P(C)(C)=O)n2)c(OC)cc1N1CCC(N2CCN(CCOc3cccc4c3CN(C3CCC(=O)NC3=O)C4=O)CC2)CC1 (stereo not shown) [Example E124] | 6.8 nM | 106 nM | 106 nM | 3970 nM | 1270 nM
7 | COCc1cc(Nc2ncc(Cl)c(Nc3ccccc3P(C)(C)=O)n2)c(OC)cc1N1CCC(N2CCN(CCCCOc3cccc4c3CN(C3CCC(=O)NC3=O)C4=O)CC2)CC1 (stereo not shown) [Example E125] | 20.3 nM | 104 nM | 18.4 nM | > 4000 nM | > 4000 nM
8 | CCc1cc(Nc2nc(Nc3ccccc3P(C)(C)=O)c3cc[nH]c3n2)c(OC)cc1N1CCC(N2CCN(CCOc3cccc4c3CN(C3CCC(=O)NC3=O)C4=O)CC2)CC1 (stereo not shown) [Example E126] | 18.9 nM | 72.3 nM | 44 nM | > 4000 nM | > 4000 nM
9 | CCc1cc(Nc2ncc(Cl)c(Nc3ccccc3P(C)(C)=O)n2)c(OC)cc1N1CCC(N2C[C@@H](C)N(CCCCOc3cccc4c3CN(C3CCC(=O)NC3=O)C4=O)[C@@H](C)C2)CC1 (stereo partly shown) [Example E129] | 6.13 nM | 47.7 nM | 3.3 nM | 889 nM | 1330 nM
10 | CCc1cc(Nc2ncc(Cl)c(Nc3ccccc3P(C)(C)=O)n2)c(OC)cc1N1CCC(N2C[C@@H]3C[C@H]2CN3CCOc2cccc3c2CN(C2CCC(=O)NC2=O)C3=O)CC1 (stereo partly shown) [Example E137] | 11.5 nM | 76.3 nM | 6.6 nM | 1080 nM | 1270 nM
11 | CCc1cc(Nc2nc(Nc3ccccc3P(C)(C)=O)c3cc[nH]c3n2)c(C)cc1N1CCC(N2CCN(CCCCOc3cccc4c3CN(C3CCC(=O)NC3=O)C4=O)CC2)CC1 (stereo not shown) [Example E140] | 7.97 nM | 54.6 nM | 8.1 nM | > 4000 nM | > 4000 nM
12 | COc1cc(N2CCC(N3CCN(CCCCOc4cccc5c4CN(C4CCC(=O)NC4=O)C5=O)CC3)CC2)c(-c2cnn(C)c2)cc1Nc1ncc(Cl)c(Nc2ccccc2P(C)(C)=O)n1 (stereo not shown) [Example E146] | 15.7 nM | 55.8 nM | 5.6 nM | 188 nM | 908 nM
13 | CCc1cc(Nc2ncc(Cl)c(Nc3ccccc3P(C)(C)=O)n2)c(OC(F)F)cc1N1CCC(N2CCN(CCOc3cccc4c3CN(C3CCC(=O)NC3=O)C4=O)CC2)CC1 (stereo not shown) [Example E151] | 3.85 nM | 56.1 nM | 6.7 nM | > 4000 nM | 3160 nM
14 | CCc1cc(Nc2ncc(Cl)c(Nc3ccccc3P(C)(C)=O)n2)c(OC(F)(F)F)cc1N1CCC(N2CCN(CCOc3cccc4c3CN(C3CCC(=O)NC3=O)C4=O)CC2)CC1 (stereo not shown) [Example E152] | 7.63 nM | 227 nM | 16.2 nM | > 4000 nM | 1470 nM
15 | CCc1cc(Nc2ncc(Cl)c(Nc3ccccc3P(C)(C)=O)n2)c(OC)cc1N1CCC(N2CCN(C(C)(C)C#Cc3cccc4c3CN(C3CCC(=O)NC3=O)C4=O)CC2)CC1 (stereo not shown) [Example E156] | 10.7 nM | 218 nM | 16.7 nM | > 4000 nM | ≥ 1540 nM
16 | CCc1cc(Nc2ncc(Cl)c(Nc3ccccc3P(C)(C)=O)n2)c(OC)cc1N1CCC(N2CCN(CC(C)(C)Oc3cccc4c3CN(C3CCC(=O)NC3=O)C4=O)CC2)CC1 (stereo not shown) [Example E157] | 11.2 nM | 103 nM | 33.7 nM | 3780 nM | 3170 nM
17 | CCc1cc(Nc2ncc(Cl)c(Nc3ccccc3P(C)(C)=O)n2)c(OC)cc1N1CCC(N2CCN([C@H]3C[C@H](Oc4cccc5c4CN(C4CCC(=O)NC4=O)C5=O)C3)CC2)CC1 (stereo partly shown) [Example E160] | 2.89 nM | 14.3 nM | 0.8 nM | 1290 nM | 2410 nM
18 | CCc1cc(Nc2ncc(-n3cccn3)c(Nc3ccccc3P(C)(C)=O)n2)c(OC)cc1N1CCC(N2CCN(CCOc3cccc4c3CN(C3CCC(=O)NC3=O)C4=O)CC2)CC1 (stereo not shown) [Example E165] | 780 nM | > 4000 nM | 4.2 nM | > 4000 nM | > 4000 nM
19 | CCc1cc(Nc2ncc(-c3cn[nH]c3)c(Nc3ccccc3P(C)(C)=O)n2)c(OC)cc1N1CCC(N2CCN(CCOc3cccc4c3CN(C3CCC(=O)NC3=O)C4=O)CC2)CC1 (stereo not shown) [Example E167] | 37.8 nM | 3050 nM | 1.5 nM | 975 nM | 1100 nM
20 | COc1cc(N2CCC(N3CCN(CCCCOc4cccc5c4CN(C4CCC(=O)NC4=O)C5=O)CC3)CC2)c(CC#N)cc1Nc1ncc(Cl)c(Nc2ccccc2P(C)(C)=O)n1 (stereo not shown) [Example E179] | 5.94 nM | 44.6 nM | 1.3 nM | 153 nM | 1160 nM
21 | COc1cc(N2CCC(N3CCN(CCC#Cc4cccc5c4CN(C4CCC(=O)NC4=O)C5=O)CC3)CC2)c(CC#N)cc1Nc1ncc(Cl)c(Nc2ccccc2P(C)(C)=O)n1 (stereo not shown) [Example E180] | 5.35 nM | 22.6 nM | 2.4 nM | 888 nM | 1100 nM
22 | COc1cc(N2CCC(N3CCN(CCOc4cccc5c4CN(C4CCC(=O)NC4=O)C5=O)CC3)CC2)c(C(C)=O)cc1Nc1ncc(Cl)c(Nc2ccccc2P(C)(C)=O)n1 (stereo not shown) [Example E185] | 18.8 nM | 144 nM | 20.3 nM | 1650 nM | 1830 nM
23 | CCc1cc(Nc2ncc(Cl)c(Nc3ccccc3P(C)(C)=O)n2)c(OC)cc1N1CCC(N2CCN([C@H]3C[C@H](Oc4cc5c(cc4F)C(=O)N(C4CCC(=O)NC4=O)C5)C3)CC2)CC1 (stereo partly shown) [Example E205] | 6.87 nM | 51.7 nM | 9.9 nM | > 4000 nM | 1050 nM
